Results from ChEMBL document CHEMBL1201862, “PubChem BioAssay data set” (2004).
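Protocol summary: plate cells (96-well), add compound at 5 concentrations, incubate 48 h, interpolate endpoints linearly. At the GI50, growth is halved.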 Active and inactive are the calls of the source. Cut-off read from the data, not from the text of the source: active = GI50 up to about 1.1 µM and inactive = higher.

Experiments:
Experiment in all cases: NCI-60 cell line screen, 48 h
CAKI-1 = tested on: CAKI-1
HCC 2998 = tested on: HCC 2998
MDA-MB-231 = tested on: MDA-MB-231
OVCAR-4 = tested on: OVCAR-4
SNB-19 = tested on: SNB-19
NCI/ADR-RES = tested on: NCI/ADR-RES
TK-10 = tested on: TK-10
SK-MEL-2 = tested on: SK-MEL-2
COLO 205 = tested on: COLO 205
NCI-H460 = tested on: NCI-H460
LOX IMVI = tested on: LOX IMVI
M14 = tested on: M14
NCI-H226 = tested on: NCI-H226
SK-OV-3 = tested on: SK-OV-3
OVCAR-8 = tested on: OVCAR-8
BT-549 = tested on: BT-549
Malme-3M = tested on: Malme-3M
SK-MEL-5 = tested on: SK-MEL-5
786-0 = tested on: 786-0
SR = tested on: SR
DU-145 = tested on: DU-145
OVCAR-5 = tested on: OVCAR-5
HCT-116 = tested on: HCT-116
IGROV-1 = tested on: IGROV-1
HOP-62 = tested on: HOP-62
U-251 = tested on: U-251
HL-60 = tested on: HL-60
SF-295 = tested on: SF-295
KM12 = tested on: KM12
MCF7 = tested on: MCF7
NCI-H23 = tested on: NCI-H23
SNB-75 = tested on: SNB-75
K562 = tested on: K562
UACC-62 = tested on: UACC-62
SF-268 = tested on: SF-268
RPMI-8226 = tested on: RPMI-8226
PC-3 = tested on: PC-3
MDA-N = tested on: MDA-N
SF-539 = tested on: SF-539
A498 = tested on: A498
HT-29 = tested on: HT-29
HCT-15 = tested on: HCT-15
SW-620 = tested on: SW-620
MDA-MB-435 = tested on: MDA-MB-435
UACC-257 = tested on: UACC-257
Hs-578T = tested on: Hs-578T
EKVX = tested on: EKVX
NCI-H522 = tested on: NCI-H522
MOLT-4 = tested on: MOLT-4
A549 = tested on: A549
OVCAR-3 = tested on: OVCAR-3
CCRF-CEM = tested on: CCRF-CEM
UO-31 = tested on: UO-31
T47D = tested on: T47D
ACHN = tested on: ACHN
SN12C = tested on: SN12C

NC(=O)c1nnc2cc(F)c(F)cc2c1N
GI50 (CAKI-1): 61.2 µM (inactive) | GI50 (HCC 2998): > 100 µM (inactive) | GI50 (MDA-MB-231): 44.1 µM (inactive) | GI50 (OVCAR-4): > 100 µM (inactive) | GI50 (SNB-19): 30.8 µM (inactive) | GI50 (NCI/ADR-RES): 27.6 µM (inactive) | GI50 (TK-10): 35.2 µM (inactive) | GI50 (SK-MEL-2): 15 µM (inactive) | GI50 (COLO 205): > 100 µM (inactive) | GI50 (NCI-H460): 58.3 µM (inactive) | GI50 (LOX IMVI): 57.3 µM (inactive) | GI50 (M14): 67.5 µM (inactive) | GI50 (NCI-H226): 11.9 µM (inactive) | GI50 (SK-OV-3): 25.5 µM (inactive) | GI50 (OVCAR-8): 37.3 µM (inactive) | GI50 (BT-549): 15.7 µM (inactive) | GI50 (Malme-3M): 29.7 µM (inactive) | GI50 (SK-MEL-5): 87.1 µM (inactive) | GI50 (786-0): 32.4 µM (inactive) | GI50 (SR): > 100 µM (inactive) | GI50 (DU-145): 74.3 µM (inactive) | GI50 (OVCAR-5): 57.3 µM (inactive) | GI50 (HCT-116): 72.1 µM (inactive) | GI50 (IGROV-1): 47.5 µM (inactive) | GI50 (HOP-62): 18.5 µM (inactive) | GI50 (U-251): 22.3 µM (inactive) | GI50 (HL-60): > 100 µM (inactive) | GI50 (SF-295): 27.3 µM (inactive) | GI50 (KM12): > 100 µM (inactive) | GI50 (MCF7): 37.9 µM (inactive) | GI50 (NCI-H23): 23.3 µM (inactive) | GI50 (SNB-75): 16.7 µM (inactive) | GI50 (K562): > 100 µM (inactive) | GI50 (UACC-62): 31.3 µM (inactive) | GI50 (SF-268): 21.6 µM (inactive) | GI50 (RPMI-8226): > 100 µM (inactive) | GI50 (PC-3): 95.1 µM (inactive) | GI50 (MDA-N): > 100 µM (inactive) | GI50 (SF-539): 36.4 µM (inactive) | GI50 (A498): 41.1 µM (inactive) | GI50 (HT-29): > 100 µM (inactive) | GI50 (HCT-15): > 100 µM | GI50 (SW-620): > 100 µM (inactive) | GI50 (MDA-MB-435): 97.9 µM (inactive) | GI50 (UACC-257): > 100 µM (inactive) | GI50 (Hs-578T): 26.7 µM (inactive) | GI50 (EKVX): 44.7 µM (inactive) | GI50 (NCI-H522): 18.8 µM (inactive) | GI50 (MOLT-4): > 100 µM (inactive) | GI50 (A549): 90.2 µM (inactive) | GI50 (OVCAR-3): > 100 µM (inactive) | GI50 (CCRF-CEM): > 100 µM (inactive) | GI50 (UO-31): 22.1 µM (inactive) | GI50 (T47D): 40.7 µM (inactive) | GI50 (ACHN): 52.1 µM (inactive) | GI50 (SN12C): 84.9 µM (inactive)
